Each structure is given as a SMILES string. The source made the active and inactive calls. No cut-off for these calls is given here.

The results in this text go back to ChEMBL document CHEMBL1158149, “(+)-Nortrachelogenin, a new pharmacologically active lignan from Wikstroemia indica” (1979).

For experiment [1], the species on record is Mus musculus. Briefly: Effect on central nervous system in mouse assessed as tranquilizing activity. In kind it is functional, organism-based.
The species entered for experiment [2] is Mus musculus. Briefly: Effect on central nervous system in mouse assessed as prolongation of anesthesia. The experiment is classed as functional.
For experiment [3], the species on record is Oryctolagus cuniculus. Nature of the experiment: Effect on central nervous system in rabbit assessed as depression. In kind it is functional, organism-based.
Experiment [4] is filed under the species Mus musculus. Nature of the experiment: Effect on central nervous system in mouse assessed as muscle relaxant activity. In kind it is functional, organism-based.

Usually LD50 stands for the dose expected to kill half of the subjects tested. As for `COc1cc(C[C@@H]2COC(=O)[C@@]2(O)Cc2ccc(O)c(OC)c2)ccc1O` [WIKSTROMOL], the result in experiment [1] and in experiment [4] was inactive. In addition, in experiment [2], the LD50 worked out at 65 mg/kg. In addition, the result in experiment [3] was Active.
